Data set [1] has as its system unsaturated B12 binding capacity (UBBC). The settings on record: relative to cyanocobalamin; J. Nucl. Med. 38, 717-723 (1997), US 5,739,313; cited from earlier work.
The test system is the same in data set [2]. The settings on record: relative to cyanocobalamin.
Data set [3] is described as follows: Specific activity of radiolabeled cobalamin DTPA conjugates. The conditions noted are these: poly-DTPA complex, increased versus mono-DTPA compounds.

For cyanocobalamin-DTPA, the “in vitro biological activity (UBBC), comparison to cyanocobalamin” value in data set [1] is given as 66.4%.
In the case of cyanocobalamin-poly-L-lysine, in data set [2], the “in vitro biological activity (UBBC) when compared to cyanocobalamin” value is 92%.
For cyanocobalamin-poly-L-lysine-polyDTPA, the “in vitro biological activity (UBBC) when compared to cyanocobalamin” value in data set [2] amounted to 43.4%. In data set [3], this substance returned a specific activity of 4.5 mCi.

(Values after patent US7591995B2, “Cobalamin conjugates useful as imaging and therapeutic agents” (Mayo Foundation for Medical Education and Research, priority 1999, dated 2009).)
